Like-named read-outs stand apart in the source and are kept apart here.
Key:
trypsin = settings: background; cited from earlier work
[1] = cited from earlier work
human t-PA = human t-PA (Homo sapiens (Human), UniProt P00750); experiment: Inhibition of human tissue-type plasminogen activator; type: biochemical; settings: Pefachrome tPA substrate; read-out: h t-PA Ki
Procedure: (§1) The inhibitory effect for the individual enzymes was determined in analogy to a previously disclosed method (Stürzebecher et al., J. Med. Chem., 40, 3091-3099 (1997)).
(§2) 200 μl of TBS (0.05 M trishydroxymethylaminomethane; 0.154 M NaCl, 2% ethanol, pH 8.0)
(§3) 2 μL of a test compound solution in 50% v/v DMSO/water
(§4) For zero order kinetics, the reaction was stopped after 20 min by adding 15 μl of acetic acid (80% v/v), and the absorption at 405 nm was determined using a Microplate Reader (Multiscan Ascent™, from Thermo). In the case of pseudo-first order kinetics, the reaction rates in the equilibrium state were determined by continuously recording the change in absorbance at 405 nm. The Ki values were calculated by parameter fitting in accordance with the rate equation for competitive inhibition using the GraFit software, version 4. The Ki values are the average of at least three determinations.

plasma kallikrein = plasma kallikrein (Homo sapiens (Human), UniProt P03952); experiment: Determination of inhibition constants for human plasma kallikrein (chromogenic substrate); type: biochemical; settings: 25° C., S2302 substrate; read-out: h PK Ki
plasma kallikrein, sequence (P03952 391-638): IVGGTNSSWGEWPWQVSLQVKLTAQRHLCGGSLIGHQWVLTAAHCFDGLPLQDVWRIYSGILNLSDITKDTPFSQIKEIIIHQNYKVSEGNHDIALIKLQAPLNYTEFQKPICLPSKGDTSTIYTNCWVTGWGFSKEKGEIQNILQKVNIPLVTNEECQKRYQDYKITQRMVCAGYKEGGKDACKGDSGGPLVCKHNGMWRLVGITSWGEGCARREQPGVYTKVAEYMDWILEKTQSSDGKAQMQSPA
plasma kallikrein, sequence (P03952 20-390 partner): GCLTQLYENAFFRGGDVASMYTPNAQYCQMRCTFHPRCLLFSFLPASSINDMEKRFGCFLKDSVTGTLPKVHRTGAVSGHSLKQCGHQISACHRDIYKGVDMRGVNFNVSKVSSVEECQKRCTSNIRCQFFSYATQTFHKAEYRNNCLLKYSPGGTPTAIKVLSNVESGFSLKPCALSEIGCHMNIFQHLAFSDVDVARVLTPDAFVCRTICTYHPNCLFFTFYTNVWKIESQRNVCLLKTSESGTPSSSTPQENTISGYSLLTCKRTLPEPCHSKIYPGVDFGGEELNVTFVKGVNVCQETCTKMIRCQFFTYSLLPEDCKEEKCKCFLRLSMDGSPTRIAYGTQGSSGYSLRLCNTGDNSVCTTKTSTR
Procedure: (§5) Determination of the Inhibition Constants for Human Plasmin (h Plasmin) and Human Plasma Kallikrein (h PK)
as §1, §2
(§6) 25 μl of substrate (4 mM, 2 mM and 1 mM tosyl-Gly-Pro-Lys-pNA=Chromozym PL from LOXO for plasmin and 3 mM, 1.5 mM and 1 mM H-D-Pro-Phe-Arg-pNA=S2302 from Chromogenix for PK, dissolved in H2O)
as §3
(§7) 50 μl of enzyme solution (plasmin from Calbiochem: 1.7 mU/ml in 0.154 M NaCl+0.1% BSA m/v; plasma kallikrein from Enzyme Research Lab.: 62 ng/ml in 0.154 M NaCl+0.1% BSA m/v)
as §4

human Factor Xa = human Factor Xa (Homo sapiens (Human), UniProt P00742); experiment: Inhibition of human Factor Xa; type: biochemical; settings: Pefachrome FXa substrate; read-out: h FXa Ki
human Factor Xa, sequence (P00742 235-488): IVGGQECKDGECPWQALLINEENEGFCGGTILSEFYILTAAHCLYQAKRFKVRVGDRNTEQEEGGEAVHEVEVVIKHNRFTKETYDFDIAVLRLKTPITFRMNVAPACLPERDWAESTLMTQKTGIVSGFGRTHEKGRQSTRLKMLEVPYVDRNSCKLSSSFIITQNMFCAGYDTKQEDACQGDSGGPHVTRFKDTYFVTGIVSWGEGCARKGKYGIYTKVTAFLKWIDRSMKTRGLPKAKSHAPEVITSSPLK
human Factor Xa, sequence (P00742 41-179 partner): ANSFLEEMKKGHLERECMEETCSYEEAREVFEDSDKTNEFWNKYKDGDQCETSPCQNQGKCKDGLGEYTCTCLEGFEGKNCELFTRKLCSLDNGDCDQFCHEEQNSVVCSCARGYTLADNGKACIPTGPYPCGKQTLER
Procedure: The inhibitory effect for the individual enzymes was determined in analogy to a previously disclosed method (Stürzebecher et al., J. Med. […] In the case of pseudo-first order kinetics, the reaction rates in the equilibrium state were determined by continuously recording the change in absorbance at 405 nm. […] The Ki values are the average of at least three determinations. Human Factor Xa (h FXa): […]

human alpha-thrombin = human alpha-thrombin (Homo sapiens (Human), UniProt P00734); experiment: Inhibition of human Factor IIa; type: biochemical; settings: Pefachrome tPA substrate; read-out: h FIIa Ki
Procedure: as §1, §2, §3, §4

human alpha-FXIIa = human alpha-FXIIa (Homo sapiens (Human), UniProt P00748); experiment: Inhibition of human alpha-Factor XIIa; type: biochemical; settings: CHA-Gly-Arg-pNA substrate; read-out: h FXIIa Ki
human alpha-FXIIa, sequence (P00748 373-615): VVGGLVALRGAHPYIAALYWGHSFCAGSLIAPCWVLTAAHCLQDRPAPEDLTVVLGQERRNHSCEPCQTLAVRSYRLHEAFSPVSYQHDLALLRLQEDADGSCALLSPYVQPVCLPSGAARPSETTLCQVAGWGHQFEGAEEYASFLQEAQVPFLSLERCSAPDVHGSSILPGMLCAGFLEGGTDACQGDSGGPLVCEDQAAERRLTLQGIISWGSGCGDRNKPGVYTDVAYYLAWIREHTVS
human alpha-FXIIa, sequence (P00748 20-372 partner): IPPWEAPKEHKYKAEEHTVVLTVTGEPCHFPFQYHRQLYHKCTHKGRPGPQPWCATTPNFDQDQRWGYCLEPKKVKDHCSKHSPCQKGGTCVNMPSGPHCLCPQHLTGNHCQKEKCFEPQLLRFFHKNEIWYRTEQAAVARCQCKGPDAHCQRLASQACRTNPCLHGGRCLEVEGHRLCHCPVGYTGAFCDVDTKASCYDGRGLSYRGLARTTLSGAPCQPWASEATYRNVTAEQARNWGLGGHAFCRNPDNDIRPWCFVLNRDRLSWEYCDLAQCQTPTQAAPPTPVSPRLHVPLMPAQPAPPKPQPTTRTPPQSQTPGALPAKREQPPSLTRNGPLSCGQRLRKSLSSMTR
Procedure: as §1, §2, §3, §4

human Factor XIa = human Factor XIa (Homo sapiens (Human), UniProt P03951); experiment: Inhibition of human Factor XIa; type: biochemical; settings: Pefachrome PCa substrate; read-out: h FXIa Ki
human Factor XIa, sequence (P03951 388-625): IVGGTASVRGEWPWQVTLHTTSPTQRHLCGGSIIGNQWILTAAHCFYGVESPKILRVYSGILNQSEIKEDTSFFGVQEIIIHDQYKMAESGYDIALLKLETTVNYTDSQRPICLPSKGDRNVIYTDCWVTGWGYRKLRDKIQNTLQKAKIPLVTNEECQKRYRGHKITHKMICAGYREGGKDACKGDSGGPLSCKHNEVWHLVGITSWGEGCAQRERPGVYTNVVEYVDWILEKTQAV
human Factor XIa, sequence (P03951 19-387 partner): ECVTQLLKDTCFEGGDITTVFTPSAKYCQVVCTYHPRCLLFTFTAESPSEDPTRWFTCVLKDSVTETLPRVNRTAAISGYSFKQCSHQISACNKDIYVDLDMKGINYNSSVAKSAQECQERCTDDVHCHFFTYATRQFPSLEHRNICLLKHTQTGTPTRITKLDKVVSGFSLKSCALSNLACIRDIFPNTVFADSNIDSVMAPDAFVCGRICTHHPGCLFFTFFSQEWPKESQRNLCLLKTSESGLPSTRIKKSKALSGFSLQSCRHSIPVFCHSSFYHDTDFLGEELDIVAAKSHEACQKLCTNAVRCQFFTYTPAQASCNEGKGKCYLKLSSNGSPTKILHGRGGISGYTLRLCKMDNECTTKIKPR
Procedure: as §1, §2, §3, §4

[2] = biological target: human activated C1r complement component (Homo sapiens (Human), UniProt P00736); experiment: Inhibition of human C1r; type: biochemical; settings: S2314 substrate; read-out: h C1r Ki
human activated C1r complement component, sequence (P00736 464-705): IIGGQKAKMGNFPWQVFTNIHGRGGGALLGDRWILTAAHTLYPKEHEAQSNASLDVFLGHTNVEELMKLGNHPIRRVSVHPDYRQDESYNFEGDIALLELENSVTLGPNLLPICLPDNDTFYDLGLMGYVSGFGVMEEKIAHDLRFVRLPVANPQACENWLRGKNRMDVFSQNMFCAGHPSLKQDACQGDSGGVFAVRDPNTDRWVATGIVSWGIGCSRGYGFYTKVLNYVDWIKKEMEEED
human activated C1r complement component, sequence (P00736 18-463 partner): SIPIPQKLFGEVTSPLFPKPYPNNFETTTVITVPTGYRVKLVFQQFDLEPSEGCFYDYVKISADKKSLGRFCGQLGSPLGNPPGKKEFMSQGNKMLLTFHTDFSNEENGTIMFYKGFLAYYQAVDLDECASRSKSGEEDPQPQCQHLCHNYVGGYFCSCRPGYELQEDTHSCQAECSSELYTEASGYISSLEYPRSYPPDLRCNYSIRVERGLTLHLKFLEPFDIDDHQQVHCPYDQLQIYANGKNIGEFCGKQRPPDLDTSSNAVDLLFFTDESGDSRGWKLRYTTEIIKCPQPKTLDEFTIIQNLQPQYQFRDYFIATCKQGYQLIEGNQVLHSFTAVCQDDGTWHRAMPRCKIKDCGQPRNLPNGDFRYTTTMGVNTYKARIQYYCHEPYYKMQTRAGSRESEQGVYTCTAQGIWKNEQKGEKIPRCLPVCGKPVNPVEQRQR
Procedure: as §1, §2, §3, §4

plasmin [3] = biological target: T1, plasmin (Homo sapiens (Human), UniProt P00747); experiment: Determination of inhibition constants for human plasmin (chromogenic substrate); type: biochemical; settings: 25° C., Chromozym PL substrate; read-out: h plasmin Ki
Procedure: as §5, §1, §2, §6, §3, §7, §4
Target sequence in this assay (P00747 581-810): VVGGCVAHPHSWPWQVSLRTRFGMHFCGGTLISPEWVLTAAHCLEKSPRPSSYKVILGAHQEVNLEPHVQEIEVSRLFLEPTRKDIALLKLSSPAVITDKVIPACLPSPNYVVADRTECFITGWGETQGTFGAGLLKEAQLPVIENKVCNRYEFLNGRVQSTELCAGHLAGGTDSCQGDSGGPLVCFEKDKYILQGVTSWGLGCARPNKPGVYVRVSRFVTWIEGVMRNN
Target sequence in this assay (P00747 97-580 partner): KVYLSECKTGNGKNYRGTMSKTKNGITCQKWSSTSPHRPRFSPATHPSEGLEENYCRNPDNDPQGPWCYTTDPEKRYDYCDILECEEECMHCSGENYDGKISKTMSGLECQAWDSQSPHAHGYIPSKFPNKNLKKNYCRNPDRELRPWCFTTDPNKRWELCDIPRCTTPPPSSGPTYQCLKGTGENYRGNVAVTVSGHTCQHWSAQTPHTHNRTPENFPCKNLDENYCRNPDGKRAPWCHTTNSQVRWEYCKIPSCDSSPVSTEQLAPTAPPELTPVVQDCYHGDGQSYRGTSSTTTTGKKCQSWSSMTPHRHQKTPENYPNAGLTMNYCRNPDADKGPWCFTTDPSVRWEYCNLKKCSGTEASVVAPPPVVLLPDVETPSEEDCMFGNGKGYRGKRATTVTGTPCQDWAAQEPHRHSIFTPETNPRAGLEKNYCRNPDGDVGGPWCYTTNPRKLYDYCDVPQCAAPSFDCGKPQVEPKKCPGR

[4] = biological target: human activated C1s complement component (Homo sapiens (Human), UniProt P09871); experiment: Inhibition of human C1s; type: biochemical; settings: S2314 substrate; read-out: h C1s Ki
Procedure: as §1, §2, §3, §4
Subcomponent “s” of Human Complement Component 1 (h C1s): Inhibition of human C1s was determined by the method described in [0092]-[0098] using native human activated C1s complement component from Calbiochem at 29 nM and Val-Ser-Arg-pNA (S2314) at 8 mM, 6 mM, and 4 mM as substrate; results are reported as Ki values (nanomolar).

human urinary kallikrein = human urinary kallikrein (Homo sapiens (Human), UniProt P06870); experiment: Inhibition of human urinary kallikrein; type: biochemical; settings: S-2266 substrate; read-out: h uKK Ki
human urinary kallikrein, sequence (P06870 25-262): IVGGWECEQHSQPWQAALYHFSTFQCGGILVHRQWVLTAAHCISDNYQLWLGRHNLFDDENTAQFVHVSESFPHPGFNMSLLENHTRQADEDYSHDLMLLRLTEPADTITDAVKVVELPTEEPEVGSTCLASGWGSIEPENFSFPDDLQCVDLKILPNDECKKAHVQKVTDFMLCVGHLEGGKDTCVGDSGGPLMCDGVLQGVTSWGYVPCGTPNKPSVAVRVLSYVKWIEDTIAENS
Procedure: as §1, §2, §3, §4

[5] = biological target: human activated protein C (Homo sapiens (Human), UniProt P04070); experiment: Inhibition of human activated protein C; type: biochemical; settings: Pefachrome PCa substrate; read-out: h aPC Ki
human activated protein C, sequence (P04070 212-450): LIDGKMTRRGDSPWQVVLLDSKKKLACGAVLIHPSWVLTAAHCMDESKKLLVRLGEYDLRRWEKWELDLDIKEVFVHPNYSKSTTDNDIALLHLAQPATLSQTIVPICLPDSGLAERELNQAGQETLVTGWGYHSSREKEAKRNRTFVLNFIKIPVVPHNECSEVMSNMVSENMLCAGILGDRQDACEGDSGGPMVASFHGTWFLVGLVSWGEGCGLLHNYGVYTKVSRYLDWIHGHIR
human activated protein C, sequence (P04070 43-197 partner): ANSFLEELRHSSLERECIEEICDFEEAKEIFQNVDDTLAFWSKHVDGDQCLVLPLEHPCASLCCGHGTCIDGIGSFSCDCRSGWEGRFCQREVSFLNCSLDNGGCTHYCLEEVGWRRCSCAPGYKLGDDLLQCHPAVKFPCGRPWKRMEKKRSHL
Procedure: as §1, §2, §3, §4

plasmin [6] = biological target: T1, plasmin; settings: background literature; read-out: Ki / inhibition constant for plasmin; cited from earlier work

human t-PA, sequence (P00750 36-562): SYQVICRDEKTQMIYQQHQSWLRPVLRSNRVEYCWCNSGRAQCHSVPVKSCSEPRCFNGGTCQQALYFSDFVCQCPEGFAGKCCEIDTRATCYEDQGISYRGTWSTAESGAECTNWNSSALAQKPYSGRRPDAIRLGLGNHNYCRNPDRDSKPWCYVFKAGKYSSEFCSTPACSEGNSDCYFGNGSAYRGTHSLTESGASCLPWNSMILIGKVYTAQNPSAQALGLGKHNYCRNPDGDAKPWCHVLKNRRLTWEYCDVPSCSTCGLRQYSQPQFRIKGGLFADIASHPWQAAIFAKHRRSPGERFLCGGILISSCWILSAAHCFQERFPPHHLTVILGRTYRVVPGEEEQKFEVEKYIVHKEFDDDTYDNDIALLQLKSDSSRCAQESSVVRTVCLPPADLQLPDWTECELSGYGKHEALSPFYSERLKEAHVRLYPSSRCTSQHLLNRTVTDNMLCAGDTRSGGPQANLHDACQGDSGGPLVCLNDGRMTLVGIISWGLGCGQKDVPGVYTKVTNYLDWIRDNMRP

| Molecule | Ki (human t-PA) | Ki (plasma kallikrein) | Ki (human Factor Xa) | Ki (human alpha-thrombin) | Ki (human alpha-FXIIa) | Ki (human Factor XIa) | Ki [2] | Ki (plasmin [3]) | Ki [4] | Ki (human urinary kallikrein) | Ki [5] | Ki (trypsin) | risk of anaphylactic shock ([1]; first administration) | risk of anaphylactic shock ([1]; repeated administration within 200 days) | Ki (plasmin [6]) |
| --- | --- | --- | --- | --- | --- | --- | --- | --- | --- | --- | --- | --- | --- | --- | --- |
| aprotinin | – | – | – | – | – | – | – | – | – | – | – | 0.1 nM | < 0.1% | 4-5% | – |
| N=C(N)c1ccc(CNC(=O)[C@H](CCC2CCNCC2)NC(=O)[C@@H](CCCc2cc[n+]([O-])cc2)NS(=O)(=O)Cc2ccccc2)cc1 [drawing 117] | 2400 nM | 4 nM | 400 nM | 4900 nM | 870 nM | 1400 nM | > 30000 nM | 1 nM | 10000 nM | > 200000 nM | 850 nM | – | – | – | – |
| COC(=O)N1CCC(CC[C@@H](NS(=O)(=O)Cc2ccccc2)C(=O)N[C@@H](CCC2CCNCC2)C(=O)NCc2ccc(C(=N)N)cc2)CC1 | 6600 nM | 2 nM | 2000 nM | 13000 nM | 1600 nM | 720 nM | > 20000 nM | 0.7 nM | > 10000 nM | > 200000 nM | 1350 nM | – | – | – | – |
| N=C(N)c1ccc(CNC(=O)[C@@H]2CCN2C(=O)[C@H](NCC(=O)O)C2CCCCC2)cc1 [melagatran] | – | – | – | – | – | – | – | – | – | – | – | – | – | – | 700 nM |
| CC(C)C(=O)N1CCC(CC[C@@H](NS(=O)(=O)Cc2ccccc2)C(=O)N[C@@H](CCC2CCNCC2)C(=O)NCc2ccc(C(=N)N)cc2)CC1 | 6500 nM | 1.5 nM | 3200 nM | 13000 nM | 1300 nM | 920 nM | > 30000 nM | 0.6 nM | > 25000 nM | > 200000 nM | 1700 nM | – | – | – | – |
| CN(C)C(=O)N1CCC(CC[C@@H](NS(=O)(=O)Cc2ccccc2)C(=O)N[C@@H](CCC2CCNCC2)C(=O)NCc2ccc(C(=N)N)cc2)CC1 | 8300 nM | 4 nM | 2500 nM | 13000 nM | 2000 nM | 1500 nM | > 50000 nM | 0.8 nM | 13000 nM | > 200000 nM | 1600 nM | – | – | – | – |

Further lines, with some results ahead:

| Ki (human t-PA) | Ki (plasma kallikrein) | Ki (human Factor Xa) | Ki (human alpha-thrombin) | Ki (human alpha-FXIIa) | Ki (human Factor XIa) | Ki [2] | Ki (plasmin [3]) | Ki [4] | Ki (human urinary kallikrein) | Ki [5] | Molecule | Ki (trypsin) | risk of anaphylactic shock ([1]; first administration) | risk of anaphylactic shock ([1]; repeated administration within 200 days) | Ki (plasmin [6]) |
| --- | --- | --- | --- | --- | --- | --- | --- | --- | --- | --- | --- | --- | --- | --- | --- |
| 3900 nM | 9.4 nM | 5900 nM | 920 nM | > 10000 nM | 500 nM | > 30000 nM | 2.7 nM | 4800 nM | > 20000 nM | 570 nM | COC(=O)c1cccc(CS(=O)(=O)N[C@H](CCCc2ccccc2)C(=O)N[C@@H](CCC2CCNCC2)C(=O)NCc2ccc(C(=N)N)cc2)c1 | – | – | – | – |
| 6100 nM | 2 nM | 2200 nM | 5500 nM | 800 nM | 870 nM | > 15000 nM | 0.6 nM | > 10000 nM | > 200000 nM | 1100 nM | CCCC(=O)N1CCC(CC[C@@H](NS(=O)(=O)Cc2ccccc2)C(=O)N[C@@H](CCC2CCNCC2)C(=O)NCc2ccc(C(=N)N)cc2)CC1 | – | – | – | – |
| 5100 nM | 0.9 nM | 2300 nM | 5600 nM | 650 nM | 720 nM | > 35000 nM | 0.8 nM | > 25000 nM | > 60000 nM | 1200 nM | CCC(=O)N1CCC(CC[C@@H](NS(=O)(=O)Cc2ccccc2)C(=O)N[C@@H](CCC2CCNCC2)C(=O)NCc2ccc(C(=N)N)cc2)CC1 | – | – | – | – |
| 3000 nM | 2 nM | 750 nM | 3800 nM | 630 nM | 870 nM | > 100000 nM | 1.5 nM | 9000 nM | > 500000 nM | 1100 nM | CC(=O)N1CCC(CCC[C@@H](NS(=O)(=O)Cc2ccccc2)C(=O)N[C@@H](CCC2CCNCC2)C(=O)NCc2ccc(C(=N)N)cc2)CC1 | – | – | – | – |
| 2300 nM | 2.7 nM | 850 nM | 1200 nM | 1500 nM | 500 nM | > 50000 nM | 0.4 nM | 4950 nM | > 80000 nM | 600 nM | N=C(N)c1ccc(CNC(=O)[C@H](CCC2CCNCC2)NC(=O)[C@@H](CCCc2ccncc2)NS(=O)(=O)Cc2ccccc2)cc1 | – | – | – | – |
| 4800 nM | 5 nM | 1900 nM | 8000 nM | 530 nM | 1400 nM | > 40000 nM | 1.8 nM | > 20000 nM | > 20000 nM | 1200 nM | CC(=O)N1CCC(CC[C@@H](NS(=O)(=O)Cc2ccccc2)C(=O)N[C@@H](CCC2CCNCC2)C(=O)NCc2ccc(C(=N)N)cc2)CC1 | – | – | – | – |
| 6100 nM | 0.3 nM | 2300 nM | 8500 nM | 1100 nM | 650 nM | > 50000 nM | 0.6 nM | 19000 nM | > 50000 nM | 1500 nM | N=C(N)c1ccc(CNC(=O)[C@H](CCC2CCNCC2)NC(=O)[C@@H](CCC2CCN(C(=O)C3CC3)CC2)NS(=O)(=O)Cc2ccccc2)cc1 | – | – | – | – |
| 5300 nM | 2 nM | 1700 nM | 4800 nM | 550 nM | 1300 nM | > 20000 nM | 1 nM | > 20000 nM | > 200000 nM | 1100 nM | CNC(=O)N1CCC(CC[C@@H](NS(=O)(=O)Cc2ccccc2)C(=O)N[C@@H](CCC2CCNCC2)C(=O)NCc2ccc(C(=N)N)cc2)CC1 | – | – | – | – |

Source: patent US8598206B2, “Trypsin-like serine protease inhibitors, and their preparation and use” (The Medicines Company (Leipzig) GmbH, priority 2010, dated 2013)
